Results reported in article PMC10629583, “Specific inhibition of an anticancer target, polo-like kinase 1, by allosterically dismantling its mechanism of substrate recognition” (Proceedings of the National Academy of Sciences of the …, 2023).

Experiments:
[1] = Solubility in PBS (imaging of insoluble particles, dynamic light scattering); format: physicochemical; conditions: PBS buffer (pH 7.4)
Experimental: All samples were analyzed after adjusting the concentration to 100 μM solution in the PBS buffer (pH 7.4) containing 1% DMSO. The measurements were carried out at 25 °C using the DynaPro NanoStar system (Wyatt Technology). The intensity of the scattered light was measured as a function of time, and the resulting data were used to calculate the size and distribution of the particles in the sample. Collected data were analyzed using the DYNAMICS software to calculate the mean size and polydispersity index of the particles in the sample. At least three repeat measurements were performed to ensure that the results were accurate and reproducible.
Fig. S1. Solubility and activity of Allopole and its related compounds. (A) Images showing insoluble
particles of 200 µM of the indicated compounds dissolved in the PBS buffer. The aggregates of […]

[2] = system: Flag-Plk1 interactions with p-PBIP1, Bub1, BubR1, Cdc25C; experiment: Coimmunoprecipitation, HeLa cells expressing Flag-Plk1; format: cell-based; conditions: 20 μM for 2 h, nocodazole + okadaic acid
Experimental: For coimmunoprecipitation analyses shown in Figs. 1C and 4F, HeLa cells stably expressing PCMV-Flag-Plk1 WT (pKM3863) (Fig. 1C) and its respective F559D mutant (pKM7979) (Fig. 4F) were generated using a lentiviral expression system. Prior to harvest, the cells were treated with 600 nM of nocodazole and 300 nM of okadaic acid (OA) for 16 h and 1.5 h, respectively, to enrich the level of phosphorylated proteins and additionally treated with either control DMSO or 20 μM of Allopole for 2 h. Immunoprecipitation was carried out essentially as described previously ([49]) in TBSN buffer [20 mM Tris–Cl (pH 8.0), 150 mM NaCl, 0.5% NP-40, 5 mM EGTA, 2 mM MgCl2, 1.5 mM EDTA, 2 mM DTT, 20 mM p-nitrophenyl phosphate (PNPP), and protease inhibitor cocktail (Roche)] using anti-Flag antibody (Sigma-Aldrich). Immunoprecipitates were separated by sodium dodecyl sulfate–polyacrylamide gel electrophoresis (SDS-PAGE) and then immunoblotted according to standard procedures using an enhanced chemiluminescence detection system (Thermo Fisher Scientific). The antibodies that were used to detect specific indicated proteins in Fig. 1C are listed in SI Appendix, Table S6.

[3] = system: Plk1 at centrosomes and kinetochores, HeLa cells; experiment: Confocal imaging of Plk1 localization in HeLa cells; format: cell-based; conditions: 10 μM, 2 h
Experimental: HeLa cells treated with either control DMSO or on 10 μM of Allopole for 2 h were immunostained using anti-Plk1 (F-8, sc-17783, Santa Cruz Biotechnologies), anti-Cep192 ([63]), and anti-CREST (#15-234, Antibodies Incorporated) antibodies and appropriate secondary antibodies, essentially as described previously ([62]). Samples were additionally stained with 2 µg/mL of Hoechst 33342 to reveal chromosomal morphologies. Images were captured using a Zeiss LSM 780 confocal microscope (Carl Zeiss Microscopy, LLC) equipped with plan-apochromat 40× (N.A. 1.3) and 63× (N.A. 1.4) oil-immersion objective lenses; a 34-channel GaAsP spectral detector; and 12-bit, 0.5-μm z-steps.
Confocal images of unsaturated fluorescence signals were acquired under the same laser intensity at the 12-bit resolution. Fluorescence intensities for identifiable centrosome and kinetochore signals were quantified after the maximum-intensity projection of z-stacks using the Zeiss ZEN v2.1 software (Carl Zeiss Microscopy, LLC). Data were quantified from three independent experiments.

HeLa cells = experiment: Time-lapse analysis of double thymidine-released HeLa cells; format: cell-based; conditions: HeLa released from double-thymidine block, 10 μM added 7 h after release
Experimental: To carry out time-lapse analysis, HeLa cells were arrested at the G1/S boundary by treating them with 2.5 mM of thymidine for 18 h, releasing them for 9 h, and then treating them again with the same dose of thymidine for another 18 h. The resulting cells were washed with fresh medium, released from the double-thymidine block for 7 h, and then treated with control DMSO or 10 μM of Allopole to examine their effect on cell cycle progression. At the indicated time points, cells were imaged every 30 min using a Keyence BZ-X710 all-in-one microscope.

PBD2 S652F mutant = molecular target: T1, PBD2 S652F mutant (Homo sapiens, UniProt Q9NYY3, S652F); experiment: FP-based inhibition assay, PBD2 S652F; format: binding
T1 construct: Purification of PBD2-His (355–685) (pKM3358) and its S652F mutant (pKM7980); His (C); made in house; host or cells: bacteria (E. coli)
Experimental: FP assays were carried out essentially as described previously ([35], [36]). FITC-conjugated ligands (15 nM) were mixed with PBDs at their EC85 concentrations. All the samples were analyzed approximately 30 min after reaction in a 384-well format using the SpectraMax Paradigm multimode microplate detection platform (Molecular Devices). Data were analyzed after carrying out at least three independent experiments using GraphPad Prism software version 8.
Fig. S3. Sequence alignment showing unique PBD2 S652 and PBD3 A612 residues and FP-based Allopole-A inhibition assays carried out with PBD2 S652F and PBD A612F mutants. (A) Human PBD1 (Uniprot ID: P53350), PBD2 (Uniprot ID: Q9NYY3), and PBD3 (15niport ID:Q9H4B4) sequences were aligned using Clustal Omega. The polo-box cap and L1 loop regions were adjusted based on the structural superposition of PBD1 (PDB ID: 3HIK), PBD2 (PDB_ID: 4RS6), and the AlphaFold model of PBD3 (https://alphafold.ebi.ac.uk). […]
with PBD2 and MBP-PBD3 are working properly under our conditions. […] The Kd values for the indicated proteins were determined after extrapolating them from the binding curves as the […]
concentration at which 50% of FITC-conjugated ligands (FITC-GPMQTSpTPKNG for PBD2 and FITC-GPLATSpTPKNG for PBD3) (5) are protein-bound. The EC85 values indicate the effective concentration of 85% of the maximal concentration calculated for each protein. […]

T1 sequence (Q9NYY3 355-685 S652F): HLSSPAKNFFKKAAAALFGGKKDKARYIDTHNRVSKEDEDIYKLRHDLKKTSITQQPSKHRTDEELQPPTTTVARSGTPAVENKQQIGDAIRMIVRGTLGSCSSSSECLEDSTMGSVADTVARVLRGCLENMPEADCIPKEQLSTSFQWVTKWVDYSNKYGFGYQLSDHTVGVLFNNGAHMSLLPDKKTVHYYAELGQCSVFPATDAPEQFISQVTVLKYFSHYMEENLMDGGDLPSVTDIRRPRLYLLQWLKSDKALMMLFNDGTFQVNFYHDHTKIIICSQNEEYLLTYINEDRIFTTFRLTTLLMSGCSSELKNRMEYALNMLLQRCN

SMILES | Solubility (in words) [1] | Phosphoproteins coprecipitating with Flag-Plk1 (in words) [2] | Plk1 signals localized at centrosomes and kinetochores (in words) [3] | Mitotic progression (in words) (HeLa cells) | Inhibition in FP assay (in words) (PBD2 S652F mutant)
Cn1cnc([N+](=O)[O-])c1Sc1nnc2n(CC3CC3)c(=O)c3sc(Cl)cc3n12 [Allopole] | greatly increased solubility | greatly diminished the amounts of these proteins coprecipitating with Plk1 | greatly diminished | effectively blocked mitotic progression for several hours and induced cell death | –
O=c1c2sc(Cl)cc2n2c(=S)[nH]nc2n1CC1CC1 [Allopole-A] | – | – | – | – | not inhibitable
